Experimental data published in patent publication US12053451B2, “Arginase inhibitors and their therapeutic applications” (OncoArendi Therapeutics S.A., priority 2016, dated 2024).
Where a name gives a salt, the structure may show the parent alone.

What was measured:
[1] = target: T1, recombinant human arginase 1 (Homo sapiens, UniProt P05089); assay: Human arginase activity assay (urea measurement), arginase 1; type: biochemical; conditions: recombinant human arginase 1, pH 7.4, 37° C., 60 min; * = value for the most potent diastereoisomer or the mixture of diastereoisomers; read-out: Activity Class (ARG I)
T1 construct: purchased Biolegend 552502
T1 sequence (P05089 1-322): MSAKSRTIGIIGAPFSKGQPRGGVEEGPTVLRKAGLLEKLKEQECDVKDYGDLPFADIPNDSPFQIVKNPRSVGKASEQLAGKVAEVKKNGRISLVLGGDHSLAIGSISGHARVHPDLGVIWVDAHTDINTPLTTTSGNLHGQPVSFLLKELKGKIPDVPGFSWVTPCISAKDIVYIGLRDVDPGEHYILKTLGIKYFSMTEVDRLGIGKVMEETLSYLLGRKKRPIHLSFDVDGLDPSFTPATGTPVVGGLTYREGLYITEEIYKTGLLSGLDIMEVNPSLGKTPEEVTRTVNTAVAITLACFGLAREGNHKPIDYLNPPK
Description: (§1) Human Arginase Activity Assay
The assay was run in the 96-well plate format, each reaction in the total volume of 100 uL. The assay is based on urea measurement, which is a product of L-arginine enzymatic degradation. […] The color product is developed by adding a mixture of reagent A (4 mM oPA in 50 mM boric acid in 1M sulfuric acid, 0.03% Brij-35) and reagent B (4 mM NED in 50 mM boric acid in 1M sulfuric acid, 0.03% Brij-35) in equal proportions. The absorbance for each well was measured at 530 nm.
(§2) For positive control, only the enzyme and substrate were used, the negative controls contained substrate solution with assay buffer. After incubating the microtiter plate at 37° C. for 60 min 150 μL of mixed reagents A and B was added to each well to stop the reaction. Absorbance was measured (λ=530 nm) 20 minutes later, after color development. The urea production in the absence of any compound was considered the maximum arginase activity. The absorbance in the absence of arginase (background) was subtracted from all the values. The normalized OD was used to generate a concentration-response curve by plotting the percent of inhibition against log[concentration] of the compound and using regression analysis (GraphPad Prism 7.0) to compute the IC50 values.

[2] = target: T2, recombinant human arginase 2 (Homo sapiens, UniProt P78540); assay: Human arginase activity assay (urea measurement), arginase 2; type: biochemical; conditions: for selected examples class estimated from % of inhibition at 1 μM and 100 μM, * = most potent diastereoisomer or mixture of diastereoisomers, read-out: Activity Class (ARG II)
T2 construct: made in house; host or cells: CHO
T2 sequence (P78540 23-354): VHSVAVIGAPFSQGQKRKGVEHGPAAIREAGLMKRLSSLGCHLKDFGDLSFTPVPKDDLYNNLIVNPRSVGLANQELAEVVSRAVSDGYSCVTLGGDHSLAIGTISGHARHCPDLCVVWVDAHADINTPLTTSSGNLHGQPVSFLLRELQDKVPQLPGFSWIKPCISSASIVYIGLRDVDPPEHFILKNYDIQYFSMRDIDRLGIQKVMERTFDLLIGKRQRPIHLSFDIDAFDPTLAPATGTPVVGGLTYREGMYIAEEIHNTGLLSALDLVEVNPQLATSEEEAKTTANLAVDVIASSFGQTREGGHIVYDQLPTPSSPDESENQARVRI
Description: as §1
An enzymatic assay with recombinant human arginases 1 (Biolegend, Cat. No. 552502) and 2 (homemade in eukaryotic expression system of CHO, purified by FPLC) was used in order to assess inhibitory activity of the compounds. The assay was run in the 96-well plate format, each reaction in the total volume of 100 uL. The assay is based on urea measurement, which is a product of L-arginine enzymatic degradation. (Baggio et al. J Pharmacol. Exp. Ther. 1999, 290, 1409-1416). The color product is developed by adding a mixture of reagent A (4 mM oPA in 50 mM boric acid in 1M sulfuric acid, 0.03% Brij-35) and reagent B (4 mM NED in 50 mM boric acid in 1M sulfuric acid, 0.03% Brij-35) in equal proportions. The absorbance for each well was measured at 530 nm.
as §2, with “Briefly, to each well of a 96-well microtiter plate 40 μL of enzyme in the reaction assay buffer (pH 7.4, 100 mM sodium phosphate buffer, 130 mM NaCl, 1 mg/mL albumin), 50 μL of the test compound solution and 10 μL of enzyme substrate solution (L-arginine hydrochloride, natural pH 5.6, final concentration 20 mM and a cofactor—manganese chloride, final concentration 150 μM) was added. For” for “For”
(§3) For selected examples the activity class for ARG2 was estimated based on % of inhibition for 1 μM and 100 μM concentration of tested compounds.

[3] = target: T3, intracellular arginase in macrophages isolated from murine bone marrow (BMDM) (Mus musculus, UniProt Q61176); assay: Cell-based assay: intracellular arginase in bone marrow derived macrophages (BMDM), urea level; parameters: species or system Balb/c mice; conditions: murine BMDM with M-CSF and IL-4, urea measured 24 hours after compound; * = most potent diastereoisomer or mixture of diastereoisomers; read-out: Activity Class (BMDM)
T3 construct: endogenous in cells; host or cells: primary bone marrow derived macrophages from Balb/c mice, M-CSF and IL-4 treated
T3 sequence (Q61176 1-323): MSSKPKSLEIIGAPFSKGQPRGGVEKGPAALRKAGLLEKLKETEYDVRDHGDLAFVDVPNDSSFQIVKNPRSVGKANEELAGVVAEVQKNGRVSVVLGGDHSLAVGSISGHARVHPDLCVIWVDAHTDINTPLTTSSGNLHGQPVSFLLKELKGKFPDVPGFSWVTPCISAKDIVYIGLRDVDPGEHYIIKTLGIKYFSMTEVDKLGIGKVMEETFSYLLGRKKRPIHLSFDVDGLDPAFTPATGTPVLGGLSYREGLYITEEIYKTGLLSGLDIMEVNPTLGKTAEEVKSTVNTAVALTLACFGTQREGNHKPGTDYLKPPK
Description: Efficacy of Selected Examples Towards Intracellular Arginase in Macrophages Isolated from Murine Bone Marrow—Bone Marrow Derived Macrophages (BMDM)
Materials & Methods: The assay was performed according to modified literature protocol modification (Pineda-Torra I et al., Methods Mol Biol. 2015; 1339:101-9. Mia S et al. Scand J Immunol. 2014 May; 79(5):305-14). The femurs and tibias were isolated from Balb/c mice. Bones were cleaned from all attached tissues by using sterile swab without affecting the bone structure. Bones were sterilized by immersion in 70% ethanol for 5 min and then rinsed in PBS. The sides of the bones were cut off and flush with cold sterile PBS by using 26-G needle S into a 50 mL sterile tube with a cell strainer (Falcon™, Cat. No. U00149), until bone cavity appeared white. Then the cells were centrifuged (5 min at 500×G, 4° C.), washed twice with PBS and counted. Cells were plated in Petri dish in density of 1×10^6/mL and cultured in DMEM (Gibco, Cat. No. 31331-029) with 10% FBS, 1% pen-strep and 50 ng/mL M-CSF (PeproTech, Cat. No. 315-02), (37° C., 5% CO2). After five days cells were subcultured into P96 plate (BD, Cat. No. 353072) in density of 64 000 cells/well in medium supplemented with 50 ng/mL M-CSF and 20 ng/mL IL-4 (Biomibo Cat. No. 214-1). One day later exemplary compounds (dissolved in PBS) were added in several different concentrations and 24 hours later the level of urea was measured in each well (Jung D et al., Clin Chem. 1975, 21(8):1136-40). The concentration of urea in the absence of any compound was considered as the maximum. The absorbance of cell culture media (background) was subtracted from all the values.
as §3

N[C@@]1(C(=O)O)COC[C@@H](CCB(O)O)C1 (racemic) [Example 61, rac-(3R,5S)-3-amino-5-(2-boronoethyl)tetrahydro-2H-pyran-3-carboxylic acid hydrochloride]
IC50 [1]: 100 to 1000 nM | IC50 [2]: 1000 to 10000 nM | IC50 [3]: 1000 to 10000 nM

NC[C@@H]1C[C@@H](CCB(O)O)CC(N)(C(=O)O)C1 (mixture of isomers) [Example 54, rac-(3R,5R)-1-amino-3-(aminomethyl)-5-(2-boronoethyl)cyclohexanecarboxylic acid dihydrochloride]
IC50 [1]: 100 to 1000 nM | IC50 [2]: 1000 to 10000 nM | IC50 [3]: 10000 to 100000 nM

CNC[C@@H]1CC[C@@H](CCB(O)O)C[C@]1(N)C(=O)O [Example 39, (1R,2S,5R)-1-amino-5-(2-boronoethyl)-2-((methylamino)methyl)cyclohexanecarboxylic acid dihydrochloride]
IC50 [1]: 1 to 100 nM | IC50 [2]: 1 to 100 nM | IC50 [3]: 100 to 1000 nM

N[C@]1(C(=O)O)C[C@H](CCB(O)O)CC[C@H]1CN1CCCC1 [Example 71, (1R,2S,5R)-1-amino-5-(2-boronoethyl)-2-(pyrrolidin-1-ylmethyl)cyclohexane-1-carboxylic acid]
IC50 [1]: 1 to 100 nM | IC50 [2]: 1 to 100 nM | IC50 [3]: 1 to 100 nM

CN(Cc1ccc(Cl)c(Cl)c1)C[C@@H]1CC[C@@H](CCB(O)O)C[C@]1(N)C(=O)O (racemic) [Example 28, rac-(1R,2S,5R)-1-amino-5-(2-boronoethyl)-2-(((3,4-dichlorobenzyl)(methyl)amino)methyl)cyclohexanecarboxylic acid dihydrochloride]
IC50 [1]: 100 to 1000 nM | IC50 [2]: 100 to 1000 nM | IC50 [3]: 10000 to 100000 nM

N[C@]1(C(=O)O)C[C@H](CCB(O)O)CC[C@H]1CN1CCCCC1 [Example 70, (1R,2S,5R)-1-amino-5-(2-boronoethyl)-2-(piperidin-1-ylmethyl)cyclohexane-1-carboxylic acid]
IC50 [1]: 1 to 100 nM | IC50 [2]: 100 to 1000 nM | IC50 [3]: 1 to 100 nM

NC1CC(CCB(O)O)CC(N)(C(=O)O)C1 (centres unmarked) [Example 56, 1,3-diamino-5-(2-boronoethyl)cyclohexanecarboxylic acid dihydrochloride]
IC50 [1]: 1000 to 10000 nM | IC50 [2]: 100 to 1000 nM | IC50 [3]: > 100000 nM

CCN(C)C[C@@H]1CC[C@@H](CCB(O)O)C[C@]1(N)C(=O)O [Example 69, (1R,2S,5R)-1-amino-5-(2-boronoethyl)-2-((ethyl(methyl)amino)methyl)cyclohexane-1-carboxylic acid]
IC50 [1]: 1 to 100 nM | IC50 [2]: 1 to 100 nM | IC50 [3]: 100 to 1000 nM

N[C@]1(C(=O)O)C[C@H](CCB(O)O)CC[C@H]1CN1CCCC1 (racemic) [Example 22, rac-(1R,2S,5R)-1-Amino-5-(2-boronoethyl)-2-(pyrrolidin-1-ylmethyl)-cyclohexane-1-carboxylic acid dihydrochloride]
IC50 [1]: 1 to 100 nM | IC50 [2]: 100 to 1000 nM | IC50 [3]: 100 to 1000 nM

N[C@@](CCCCB(O)O)(C(=O)O)C1CCN(Cc2ccc(Cl)c(Cl)c2)CC1 [Comparative example 3, reference compound]
IC50 [1]: 1 to 100 nM | IC50 [2]: 100 to 1000 nM | IC50 [3]: 1000 to 10000 nM

N[C@]1(C(=O)O)C[C@H](CCB(O)O)CC[C@H]1CN1CCc2ccccc2C1 (racemic) [Example 35, rac-(1R,2S,5R)-1-amino-5-(2-boronoethyl)-2-((3,4-dihydroisoquinolin-2(1H)-yl)methyl)cyclohexanecarboxylic acid dihydrochloride]
IC50 [1]: 100 to 1000 nM | IC50 [2]: 1000 to 10000 nM | IC50 [3]: 10000 to 100000 nM

N[C@]1(C(=O)O)C[C@H](CCB(O)O)CC[C@H]1CN1CCCCC1 (racemic) [Example 31, rac-(1R,2S,5R)-1-amino-5-(2-boronoethyl)-2-(piperidin-1-ylmethyl)cyclohexanecarboxylic acid dihydrochloride]
IC50 [1]: 1 to 100 nM | IC50 [2]: 100 to 1000 nM | IC50 [3]: 1 to 100 nM

N[C@]1(C(=O)O)C[C@H](CCB(O)O)CC[C@H]1CN1C2CCC1CC2 (racemic) [Example 34, rac-(1R,2S,5R)-2-(7-azabicyclo[2.2.1]heptan-7-ylmethyl)-1-amino-5-(2-boronoethyl)cyclohexanecarboxylic acid dihydrochloride]
IC50 [1]: 1 to 100 nM | IC50 [3]: 100 to 1000 nM
